# From patent publication US20120225123A1, “Use of Synergistic Combinations of an Avermectin and an Antineoplastic Compounds for the Treatment of Hematological Malignancies” (UNIVERSITY HEALTH NETWORK, priority 2009, published 2012)
# Like-named read-outs stand apart in the source and are kept apart here.
# How the values were obtained:
# [1] = tested on: acute myeloid leukemia (AML) patient samples; experiment: Cell viability by Annexin V and PI staining, AML patient samples; format: cell-based, human; settings: 48 hours
# Protocol: (§1) Primary human acute myeloid leukemia (AML) samples were isolated from fresh bone marrow and peripheral blood samples of consenting patients. Similarly, primary normal hematopoietic cells were obtained from healthy consenting volunteers donating peripheral blood mononuclear cells
# (§2) (PBSCs) for stem cell transplantation. The mononuclear cells were isolated from the samples by Ficoll density centrifugation. Primary cells were cultured at 37° C. in IMDM supplemented with 20% FCS and appropriate antibiotics.
# (§3) Cell growth and viability was assessed by the MTS assay (Promega, Madison, Wis.) according to the manufacturer's instructions and as previously described.^12 Cell death was measured by Annexin V-fluoroscein isothiocyanate (FITC) and Propidium Iodide (PI; Biovision Research Products, Mountain View, Calif.) staining and flow cytometry according to the manufacturer's instructions and as previously described.^13 To identify CD34+ cells, a normal PBSC sample was co-stained with PE-anti-CD34+ (Beckman Coulter, Marseille France), and APC-anti-CD45 (Becton Dickenson, San Jose Calif.).
# (§4) Given the cytotoxicity of IVM toward leukemia cell lines, its cytotoxicity was compared to primary normal hematopoietic cells and acute myeloid leukemia (AML) patient samples (n=4 intermediate risk cytogenetics, n=1 good risk cytogenetics, and n=1 unknown cytogenetics). […]
# [2] = tested on: primary normal hematopoietic cells (PBSC); experiment: Cell viability by Annexin V and PI staining, normal hematopoietic cells; format: cell-based, human; settings: 48 hours, concentrations up to 20 μM
# Protocol: as §1, §2, §3, §4
# [3] = tested on: normal hematopoetic cells; experiment: Clonogenic (methylcellulose colony forming) assay, normal cells; format: cell-based, human; settings: ivermectin 6 μM, n=3
# Protocol: To assess clonogenic growth, primary AML cells or granulocyte colony-stimulating factor (G-CSF) mobilized PBSCs (4×10^5/mL) were treated with IVM or buffer control for 24 hours. After treatment, cells were washed and 10^5 cell/mL were plated in duplicate in MethoCult GF H4434 medium (StemCell Technologies, Vancouver, BC) containing 1% methycellulose in IMDM, 30% FCS, 1% bovine serum albumin, 3 U/mL of recombinant human erythropoietin, 10^−4 M of 2-mercaptoethanol, 2 mM of L-glutamine, 50 ng/mL of recombinant human stem cell factor, 10 ng/mL of GM-CSF, and 10 ng/mL of rh IL-3. Alternatively, primary cells were plated directly into MethoCult GF H4434 medium with ivermectin. Seven days (AML samples) or 14 days (normal PBCS) after plating, the number of colonies containing 10 or more cells for AML or over 100 cells for normal samples was counted as previously described.^14
# Ivermectin was also evaluated in clonogenic assays in primary normal hematopoietic and AML cells. Ivermectin (6 μM) had minimal effects on the clonogenic growth of normal hematopoetic cells (n=3) with <15% reduction in clonogenic growth. In contrast, ivermectin reduced clonogenic growth by ≧40% in 3/6 primary AML samples (FIG. 1D). Similar effects were noted when primary cells were directly plated into clonogenic assays with ivermectin (FIG. 1G).
# [4] = tested on: OCI-AML2 subcutaneous xenografts; experiment: OCI-AML2 xenograft, intraperitoneal ivermectin: Tunel staining and STAT1 Q-RT-PCR; format: in vivo, mouse
# Protocol: In order to measure gene expression changes in vivo, OCI-AML2 cells (2.5×10^5) were injected subcutaneously into the flanks of sub-lethally irradiated NOD/SCID mice. Once tumors were established, mice were treated with ivermectin (7 mg/kg) or vehicle control intraperitoneally for 5 days. After treatment, mice were sacrificed, and tumors harvested. mRNA was extracted and changes in STAT expression were measured by quantitative RT-PCR (QRT-PCR). Evidence of apoptosis was measured by Tunel staining and immunohistochemistry (Pathology Research Program, University Health Network, Toronto, Canada).
# Changes in ROS production are indicative of a biological response to ivermectin, but are very difficult to measure in the context of a clinical trial. Therefore, to identify alterations in gene expression that are a result of ROS production and could be used as biomarkers in the context of a clinical trial, gene expression profiling analysis (using Affymetrix HG U133 Plus 2.0 arrays) RNA derived from OCI-AML2 cells treated with ivermectin for 30 hr and 40 hr was undertaken. One hundred and fifty genes were deregulated >4-fold at both time points (33 under-expressed; 117 over-expressed) compared to control. […] Changes in STAT1 expression in tumors from a leukemia xenograft model were also evaluated. […] After treatment, tumors were harvested, mRNA extracted, and STAT1 expression measured by Q-RT PCR.
# OCI-AML2 cells = experiment: Intracellular chloride (SPQ) and cell size (forward light scatter), OCI-AML2; format: cell-based, human
# Protocol: Intracellular chloride concentration was measured using a fluorescent indicator for chloride, SPQ as previously described.^16 Upon binding halide ions like chloride, SPQ is quenched resulting in a decrease in fluorescence without a shift in wavelength. […] After 15 minutes of incubation with SPQ, cells were diluted 15:1 in HBSS and centrifuged. The supernatant was removed, cells were resuspended in 200 μl of fresh HBSS and incubated for 15 minutes in 37° C. to allow recovery from the hypotonic shock. Cells were then stained with propidium iodide and SPQ fluorescence in the PI negative cells was determined using an LSR-II flow cytometer (Beckton Dickonson, San Jose, Calif.) (excitation 351 nm, emission 485 nm). In parallel, changes in cell size were determined by measuring forward light scatter by flow cytometry. Results were analyzed with FlowJo version 8.8 (TreeStar, Ashland, Oreg.).
# [5] = tested on: U937 and TEX leukemia cells; primary AML cells; experiment: Reactive oxygen species, Carboxy-H2DCFDA staining, sensitive cells; format: cell-based, human
# [6] = tested on: DU145 and PPC-1 cells; normal hematopoietic cells; experiment: Reactive oxygen species, Carboxy-H2DCFDA staining, resistant cells; format: cell-based, human
# [7] = cited from earlier work
# [8] = cited from earlier work; remark: listed apart in the source
# [9] = healthy male volunteers, 14 mg capsule of radiolabelled ivermectin
# [10] = onchocerciasis patients, single oral dose of 150 μg/kg
substance,measurement,setting,value
ivermectin,cytotoxicity,[1],cytotoxic to AML patient samples at low micromolar concentrations
same,induction of cell death,[2],did not induce cell death
same,reduction in clonogenic growth,[3],< 15%
same,"apoptosis in the subcutaneous tumor, Tunel staining",[4]; 7 mg/kg intraperitoneally for 5 days,increased apoptosis
same,STAT1 mRNA in tumors vs vehicle control,"[4]; ivermectin for 5 days, Q-RT PCR",increased in two of three tested tumors
same,"intracellular chloride, SPQ fluorescence","OCI-AML2 cells; 10 μM IVM, 2 hours",decreased SPQ fluorescence
same,cell size,"OCI-AML2 cells; 2 hours of treatment, flow cytometry",caused an increase in cell size
same,ROS generation,"[5]; U937 and TEX cells, 2 hours after treatment",demonstrated increased ROS generation
same,ROS generation,[5]; primary AML cells,demonstrated increased ROS generation
same,ROS generation,[6]; DU145 and PPC-1 cells,did not show changes in ROS generation
same,ROS generation,[6]; normal hematopoietic cells,not normal hematopoietic cells
same,time over which IVM and/or metabolites are excreted in the feces,[7]; estimated,~12 days
same,half-life,[7]; [9],11.8 h
same,mean Tmax,[7]; [9],6 h
same,administered dose excreted in the urine,[7]; in vivo,< 1%
same,area under the curve over 48 hours,[7]; [10],2852 ng·h/mL
same,maximum plasma concentration,[7]; [10],52.0 ng/mL
same,time to maximum plasma concentration,[7]; [10],5.2 h
same,adverse effects,"[8]; healthy volunteers, oral, dose of 120 (~2 mg/kg)",no serious adverse effects were noted
same,adverse effects,"[8]; patients with spinal injury, up to 1.6 mg/kg subcutaneously twice weekly for up to 12 weeks",no significant adverse effects were reported
